Assay results from patent US20220281848A1, “PYRAZOLE-SUBSTITUTED PYRROLIDINONES AS HERBICIDES” (FMC Corporation, priority 2019, published 2022).

Legend:
plants = test: Test D post-emergence, other plants of Tables D2 and D4; format: in vivo; conditions: for damage to plant (100=total damage to plant; 0=no damage to plant), ABUTH / damage to plant (100=total damage to plant; 0=no damage to plant), AMARE / damage to plant (100=total damage to plant; 0=no damage to plant), BIDPI / damage to plant (100=total damage to plant; 0=no damage to plant), BRAPL / damage to plant (100=total damage to plant; 0=no damage to plant), CYPES / damage to plant (100=total damage to plant; 0=no damage to plant), DIGSA / damage to plant (100=total damage to plant; 0=no damage to plant), ECHCG / damage to plant (100=total damage to plant; 0=no damage to plant), ELEIN / damage to plant (100=total damage to plant; 0=no damage to plant), EPHHL / damage to plant (100=total damage to plant; 0=no damage to plant), GLXMA / damage to plant (100=total damage to plant; 0=no damage to plant), IPOHE / damage to plant (100=total damage to plant; 0=no damage to plant), ORYSA / damage to plant (100=total damage to plant; 0=no damage to plant), PANMI / damage to plant (100=total damage to plant; 0=no damage to plant), SETFA / damage to plant (100=total damage to plant; 0=no damage to plant), SORVU: post-emergence
Procedure, shortened: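 Damage was rated visually from 0 (none) to 100 (total), at 20 DAA for pre-emergence and 15 d for post-emergence. Plants grew from safener-treated seed in a glasshouse at 24/18° C. or 20/16° C. day/night, 65% humidity, watered twice daily.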

wheat = test: Test D post-emergence, wheat seed treated with a herbicide safener; format: in vivo; conditions: "Cereals" Postemergent
Method: A formulation containing 50 g/L of the test chemical was prepared by dissolving the active ingredient in a mixture of organic solvents and emulsifier, details of which are provided in the table. This formulation was then mixed with a small, variable amount of acetone to aid dissolution, before addition of a 0.2% v/v aqueous solution of an adjuvant, as the aqueous diluent, to form an aqueous spray solution which contains a predetermined concentration of the active ingredient.
This aqueous spray solution was then sprayed onto plants including maize and wheat that had been seed treated with a herbicide safener, after one day's cultivation (for pre-emergence) or after about 12 days' cultivation (for post-emergence). The plants were grown from seeds sown in standard soil, placed in a glasshouse under controlled conditions (at 24/18° C. or 20/16° C., day/night; 16 h light; 65% humidity). After spray application the plants were then grown in a glasshouse under the same conditions and watered twice daily. After 15 d for post-emergence and 20 DAA for pre-emergence the test was evaluated (100=total damage to plant; 0=no damage to plant).

[1] = "Cereals" Postemergent, Rates 130, evaluated after 15 d
[2] = "Cereals" Postemergent, Rates 250, evaluated after 15 d
[3] = "Cereals" Postemergent, Rates 500, evaluated after 15 d

SMILES: CN1CC(c2cc(C(F)(F)F)n(C)n2)C(C(=O)Nc2ccc(F)c(F)c2F)C1=O (racemic) [Compound 17]
- ALOMY damage rating (100=total damage to plant; 0=no damage to plant) (plants; [1]): 30
- ALOMY damage rating (100=total damage to plant; 0=no damage to plant) (plants; [2]): 50
- ALOMY damage rating (100=total damage to plant; 0=no damage to plant) (plants; [3]): 70
- AVEFA damage rating (100=total damage to plant; 0=no damage to plant) (plants; [1]): 0
- AVEFA damage rating (100=total damage to plant; 0=no damage to plant) (plants; [2]): 30
- AVEFA damage rating (100=total damage to plant; 0=no damage to plant) (plants; [3]): 60
- BEAVA damage rating (100=total damage to plant; 0=no damage to plant) (plants; [1]): 10
- BEAVA damage rating (100=total damage to plant; 0=no damage to plant) (plants; [2]): 20
- BEAVA damage rating (100=total damage to plant; 0=no damage to plant) (plants; [3]): 20
- BROTE damage rating (100=total damage to plant; 0=no damage to plant) (plants; [1]): 0
- BROTE damage rating (100=total damage to plant; 0=no damage to plant) (plants; [2]): 10
- BROTE damage rating (100=total damage to plant; 0=no damage to plant) (plants; [3]): 20
- BRSNN damage rating (100=total damage to plant; 0=no damage to plant) (plants; [1]): 0
- BRSNN damage rating (100=total damage to plant; 0=no damage to plant) (plants; [2]): 20
- BRSNN damage rating (100=total damage to plant; 0=no damage to plant) (plants; [3]): 20
- CHEAL damage rating (100=total damage to plant; 0=no damage to plant) (plants; [1]): 0
- CHEAL damage rating (100=total damage to plant; 0=no damage to plant) (plants; [2]): 60
- CHEAL damage rating (100=total damage to plant; 0=no damage to plant) (plants; [3]): 50
- GALAP damage rating (100=total damage to plant; 0=no damage to plant) (plants; [1]): 0
- GALAP damage rating (100=total damage to plant; 0=no damage to plant) (plants; [2]): 40
- GALAP damage rating (100=total damage to plant; 0=no damage to plant) (plants; [3]): 30
- HORVW damage rating (100=total damage to plant; 0=no damage to plant) (plants; [1]): 10
- HORVW damage rating (100=total damage to plant; 0=no damage to plant) (plants; [2]): 40
- HORVW damage rating (100=total damage to plant; 0=no damage to plant) (plants; [3]): 80
- KCHSC damage rating (100=total damage to plant; 0=no damage to plant) (plants; [1]): 0
- KCHSC damage rating (100=total damage to plant; 0=no damage to plant) (plants; [2]): 0
- KCHSC damage rating (100=total damage to plant; 0=no damage to plant) (plants; [3]): 20
- LOLPE damage rating (100=total damage to plant; 0=no damage to plant) (plants; [1]): 0
- LOLPE damage rating (100=total damage to plant; 0=no damage to plant) (plants; [2]): 30
- LOLPE damage rating (100=total damage to plant; 0=no damage to plant) (plants; [3]): 60
- POAAN damage rating (100=total damage to plant; 0=no damage to plant) (plants; [1]): 60
- POAAN damage rating (100=total damage to plant; 0=no damage to plant) (plants; [2]): 80
- POAAN damage rating (100=total damage to plant; 0=no damage to plant) (plants; [3]): 90
- POLCO damage rating (100=total damage to plant; 0=no damage to plant) (plants; [1]): 0
- POLCO damage rating (100=total damage to plant; 0=no damage to plant) (plants; [2]): 0
- POLCO damage rating (100=total damage to plant; 0=no damage to plant) (plants; [3]): 10
- SINAR damage rating (100=total damage to plant; 0=no damage to plant) (plants; SINAR, "Cereals" Postemergent, Rates 500, evaluated after 15 d): 60
- STEME damage rating (100=total damage to plant; 0=no damage to plant) (plants; [1]): 0
- STEME damage rating (100=total damage to plant; 0=no damage to plant) (plants; [2]): 0
- STEME damage rating (100=total damage to plant; 0=no damage to plant) (plants; [3]): 30
- VERPE damage rating (100=total damage to plant; 0=no damage to plant) (plants; [1]): 30
- VERPE damage rating (100=total damage to plant; 0=no damage to plant) (plants; [2]): 70
- VERPE damage rating (100=total damage to plant; 0=no damage to plant) (plants; [3]): 60
- damage to plant (100=total damage to plant; 0=no damage to plant), ABUTH (plants; rate 130, evaluated after 15 d): 0
- damage to plant (100=total damage to plant; 0=no damage to plant), ABUTH (plants; rate 250, evaluated after 15 d): 0
- damage to plant (100=total damage to plant; 0=no damage to plant), ABUTH (plants; rate 500, evaluated after 15 d): 20
- damage to plant (100=total damage to plant; 0=no damage to plant), AMARE (plants; rate 250, evaluated after 15 d): 20
- damage to plant (100=total damage to plant; 0=no damage to plant), AMARE (plants; rate 500, evaluated after 15 d): 40
- damage to plant (100=total damage to plant; 0=no damage to plant), BIDPI (plants; rate 130, evaluated after 15 d): 0
- damage to plant (100=total damage to plant; 0=no damage to plant), BIDPI (plants; rate 250, evaluated after 15 d): 0
- damage to plant (100=total damage to plant; 0=no damage to plant), BIDPI (plants; rate 500, evaluated after 15 d): 0
- damage to plant (100=total damage to plant; 0=no damage to plant), BRAPL (plants; rate 130, evaluated after 15 d): 70
- damage to plant (100=total damage to plant; 0=no damage to plant), BRAPL (plants; rate 250, evaluated after 15 d): 80
- damage to plant (100=total damage to plant; 0=no damage to plant), BRAPL (plants; rate 500, evaluated after 15 d): 80
- damage to plant (100=total damage to plant; 0=no damage to plant), CYPES (plants; rate 130, evaluated after 15 d): 0
- damage to plant (100=total damage to plant; 0=no damage to plant), CYPES (plants; rate 250, evaluated after 15 d): 0
- damage to plant (100=total damage to plant; 0=no damage to plant), CYPES (plants; rate 500, evaluated after 15 d): 10
- damage to plant (100=total damage to plant; 0=no damage to plant), DIGSA (plants; rate 130, evaluated after 15 d): 70
- damage to plant (100=total damage to plant; 0=no damage to plant), DIGSA (plants; rate 250, evaluated after 15 d): 80
- damage to plant (100=total damage to plant; 0=no damage to plant), DIGSA (plants; rate 500, evaluated after 15 d): 80
- damage to plant (100=total damage to plant; 0=no damage to plant), ECHCG (plants; rate 130, evaluated after 15 d): 80
- damage to plant (100=total damage to plant; 0=no damage to plant), ECHCG (plants; rate 250, evaluated after 15 d): 80
- damage to plant (100=total damage to plant; 0=no damage to plant), ECHCG (plants; rate 500, evaluated after 15 d): 80
- damage to plant (100=total damage to plant; 0=no damage to plant), ELEIN (plants; rate 130, evaluated after 15 d): 0
- damage to plant (100=total damage to plant; 0=no damage to plant), ELEIN (plants; rate 250, evaluated after 15 d): 10
- damage to plant (100=total damage to plant; 0=no damage to plant), ELEIN (plants; rate 500, evaluated after 15 d): 20
- damage to plant (100=total damage to plant; 0=no damage to plant), EPHHL (plants; rate 130, evaluated after 15 d): 10
- damage to plant (100=total damage to plant; 0=no damage to plant), EPHHL (plants; rate 250, evaluated after 15 d): 20
- damage to plant (100=total damage to plant; 0=no damage to plant), EPHHL (plants; rate 500, evaluated after 15 d): 30
- damage to plant (100=total damage to plant; 0=no damage to plant), GLXMA (plants; rate 130, evaluated after 15 d): 0
- damage to plant (100=total damage to plant; 0=no damage to plant), GLXMA (plants; rate 250, evaluated after 15 d): 0
- damage to plant (100=total damage to plant; 0=no damage to plant), GLXMA (plants; rate 500, evaluated after 15 d): 10
- damage to plant (100=total damage to plant; 0=no damage to plant), IPOHE (plants; rate 130, evaluated after 15 d): 0
- damage to plant (100=total damage to plant; 0=no damage to plant), IPOHE (plants; rate 250, evaluated after 15 d): 0
- damage to plant (100=total damage to plant; 0=no damage to plant), IPOHE (plants; rate 500, evaluated after 15 d): 10
- damage to plant (100=total damage to plant; 0=no damage to plant), ORYSA (plants; rate 130, evaluated after 15 d): 0
- damage to plant (100=total damage to plant; 0=no damage to plant), ORYSA (plants; rate 250, evaluated after 15 d): 0
- damage to plant (100=total damage to plant; 0=no damage to plant), ORYSA (plants; rate 500, evaluated after 15 d): 10
- damage to plant (100=total damage to plant; 0=no damage to plant), PANMI (plants; rate 130, evaluated after 15 d): 0
- damage to plant (100=total damage to plant; 0=no damage to plant), PANMI (plants; rate 250, evaluated after 15 d): 0
- damage to plant (100=total damage to plant; 0=no damage to plant), PANMI (plants; rate 500, evaluated after 15 d): 0
- damage to plant (100=total damage to plant; 0=no damage to plant), SETFA (plants; rate 130, evaluated after 15 d): 60
- damage to plant (100=total damage to plant; 0=no damage to plant), SETFA (plants; rate 250, evaluated after 15 d): 70
- damage to plant (100=total damage to plant; 0=no damage to plant), SETFA (plants; rate 500, evaluated after 15 d): 70
- damage to plant (100=total damage to plant; 0=no damage to plant), SORVU (plants; rate 130, evaluated after 15 d): 0
- damage to plant (100=total damage to plant; 0=no damage to plant), SORVU (plants; rate 250, evaluated after 15 d): 0
- damage to plant (100=total damage to plant; 0=no damage to plant), SORVU (plants; rate 500, evaluated after 15 d): 0
- TRZAW damage rating (100=total damage to plant; 0=no damage to plant) (wheat; Rates 130, evaluated after 15 d): 0
- TRZAW damage rating (100=total damage to plant; 0=no damage to plant) (wheat; Rates 250, evaluated after 15 d): 40
- TRZAW damage rating (100=total damage to plant; 0=no damage to plant) (wheat; Rates 500, evaluated after 15 d): 70
